Reference: ChEMBL document CHEMBL3046734, “Molecular insights to explore abietane diterpenes as new LOX inhibitors” (Med Chem Res, 2013)

Columns and labels:
[1] = Inhibition of Soybean LOX using linoleic acid as substrate incubated for 5 mins prior to substrate addition measured after 10 mins by spectrophotometric analysis; parameters: species or system Glycine max
[2] = Inhibition of LOX (unknown origin); parameters: species or system Homo sapiens

IC50 [1] [µM] | Compound | IC50 [2] [µM]
69 | COc1c(C(C)C)cc2c(c1OC)[C@@]13CCC(=O)C(C)(C)[C@@H]1[C@H](OC3=O)C2=O [TAXUSABIETANE C] | 
73 | COc1c(C(C)C)cc2c(c1O)C=C1C=CC(=O)C(C)(C)C1CC2=O (stereo not given) [TAXAMAIRIN F] | 

The next lines start with the compound.

Compound | IC50 [1] [µM] | IC50 [2] [µM]
COc1c(C(C)C)cc2c(c1O)[C@@]1(C)CCC(=O)C(C)(C)[C@@H]1CC2=O [TAXUSABIETANE A] |  | 57
NC(=O)n1c(O)c(C(=O)c2cccs2)c2cc(Cl)ccc21 [TANIDAP SODIUM] | 41.6 | 
O=c1cc(-c2ccccc2)oc2cc(O)c(O)c(O)c12 [BAICALEIN] | 22.1 | 
